The source of these data is patent US20100221388A1, “INSTANTLY SOLUBLE COMPOSITIONS FOR CALCIUM FORTIFICATION OF BEVERAGES” (priority 2008, published 2010).

Data set [1] in a line: visual test of transparency for calcium-oxalate crystal formation in hot black tea with calcium salt (100 mg elemental calcium). It is filed as physicochemical. The settings on record: 240 ml hot black tea. On the procedure: The data describes the effect of different levels of Mg and ascorbic acid (vitamin C) on appearance of visible calcium oxalate precipitation. The experiments were performed with various soluble calcium salts by adding different levels of ascorbic acid and Magnesium citrate and testing the impact on formation of calcium-oxalate crystals in tea preparations. […] The calcium salt mixture was added and stirred into a cup holding 240 ml of hot black tea made with boiling tap water. A visual test of transparency was made at 5, 10, 15 and 20 minutes after adding the mixture to the tea for determining any impact on solution clarity by formation of calcium-oxalate crystals. If visible crystals were formed within 10 minutes the result was determined “unacceptable”, if visible crystals were formed between 10-20 minutes then the results was marked “borderline”. If no crystals were visible within 20 minutes the result was marked “acceptable”. FIGS. 1-5 show the experimental results for various calcium salts. In each of the figures the X-axis marks the amount of Magnesium Citrate (mg) and the Y-axis marks the amount of ascorbic acid (mg). Each indicia of a circle, diamond or square signifies the experimental outcome of a separate experiment; circles indicate an acceptable outcome, diamonds indicate a borderline acceptable (less than optimal) outcome, and squares indicate an unacceptable outcome.

The test system of another data set is Casein. Put plainly: coagulation in casein-containing preparations with calcium salts (150 mg elemental calcium). Format: physicochemical. The settings on record: room temperature.
Setting [2] is: casein-containing non-dairy creamer in water.

In the case of `O=C1O[C@H]([C@@H](O)CO)C(O)=C1O` [ascorbic acid], the “minimal amount of ascorbic acid required to delay or prevent calcium oxalate formation” value in data set [1] (in general across calcium salts (FIGS. 1-5)) is 30 mg.
With `O=P([O-])([O-])O.[K+].[K+]` [PP, Potassium phosphate dibasic anhydrous], in the data set with Casein (setting [2]), the “level sufficient to limit the coagulation to a minimal and acceptable change in appearance” value came out at 825 mg; the “lowest level required for preventing coagulation” value worked out at 3000 mg. Moreover, in the data set with Casein (half & half (mix of milk and cream)), the “lowest level that prevented coagulation” value was found to be 500 mg. Moreover, in the data set with Casein (whole milk (about 3% fat)), the “amount sufficient to prevent coagulation” value came out at 10 mg.
With `CC(=O)[O-].CC(=O)[O-].[Ca+2]` [calcium acetate, Calcium diacetate], the “need for additives to delay or prevent calcium oxalate formation, by calcium salt” value in data set [1] (ascorbic acid with or without Magnesium Citrate) is recorded as “additional “competing salt” is required even with higher level of ascorbic acids”.
